Measured values taken from US12612424B2, “HPK1 inhibitors and uses thereof” (Regor Pharmaceuticals, Inc., priority 2019, dated 2026).

Tested on: Human Pan T Cell (IL-2 release)
Test: IL2 released by human pan T cell upon anti-CD3/anti-CD28 stimulation (ELISA)
Type: cell-based
Conditions: human pan T cells; for EC (2-fold response) / maximal fold induction: 48 h; for EC (2-fold response) / EC2x (nM): concentration of compound that gives 200% IL-2 response (2 folds) over DMSO control; for maximal fold induction / IL-2 Max Fold Response: response of IL-2 over DMSO control, anti-CD3/anti-CD28, 48 hours, ELISA; for maximal fold induction: read-out: IL-2 Max Fold Response; for EC50: IL-2 response, calculated with GraphPad Prism
Text: For example, Example 5 describes such a functional assay for determining the effect of an HPK1 inhibitor on IL-2 & IFN-γ release upon stimulation of Pan T cells. The secreted IL-2 & IFN-γ can be measured/quantified by standard ELISA assay. Briefly, pan T cells can be isolated from peripheral blood (PB) mononuclear cells (MNCs), or PBMC, using commercially available kits, such as MACS (Miltenyl Biotec) Pan T isolation kit (Cat. No. 130-096-535). Primary human pan-T cells include CD4 and CD8 T cells as well as some gamma/delta T cell subsets. The pan-T cells can be isolated using the negative immunomagnetic separation technique without the use of columns.
Isolated pan-T cells can be dispensed into 96-well plates at 100,000 cells/well, and stimulated with immobilized anti-CD3 antibody and soluable anti-CD28 antibody, or PMA/Ionomycin as the positive control (or culture media as the negative control). Different concentrations of test compounds can be added to the cells to assess the compound effect on cytokine secretion following TCR-stimulation/CD28 co-stimulation. Stimulated cells are incubated for 2 more days, before the supernatant (containing secreted cytokines by pan-T cells) is collected from each well for ELISA assay and quantitation of IL-2 and IFN-γ.
Biology Example 8 Compound Efficacy Study on IL2 & IFN-γ Released by Human Pan T Cell
This example is an assay method that can be used to determine compound effects on IL2 & IFN-γ release using pan T cells and ELISA assay format.
3. Procedures Procedures for Pan T isolation and Reagent preparation (Day 0): 1. Cell Growth Medium: • RPMI1640: ATCC, Cat #30-2001 • 10% FBS: Gibco, Cat #10099141 • 1% Pen-Strep: Gibco, Cat #15140122 • 1% Non-essential amino: Gibco, Cat #11140050 • Beta-Mercaptoethanol: Gibco, Cat #21985023 2. Pan T Isolation Buffer Preparation:
Prepare a solution containing phosphate-buffered saline (PBS), pH 7.2, 0.5% bovine serum albumin (BSA), and 2 mM EDTA by diluting MACS® BSA Stock Solution (#130-091-376) 20 times with autoMACS® Rinsing Solution. Keep buffer at 4° C. Degas buffer before use, as air bubbles could block the column.
3. Thawing of Frozen PBMC • 1) Pre-heat medium at 37° C. water bath. • 2) Rapidly thaw cells in 37° C. water bath. • 3) Add the pre-warmed medium into 15 mL tube. Transfer cells to the tube. • 4) 300×g centrifuge for 8 min. (centrifuge increase 0, decrease 0). • 5) Wash the PBMC using Rinsing buffer. • 6) Centrifuge PBMC at 300×g for 8 min, wash it twice (centrifuge increase 9, decrease 1). • 7) Resuspend the cells with Pan T cells isolation buffer and count cells number. 4. Pan T Cells Isolation: Cell Staining with Microbead Cocktail • 1) Prepare cells and determine cell number. Filter cells by 70 μm cell strainer. • 2) Resuspend cell pellet in 40 μL of buffer per 10^7 total cells. • 3) Add 10 μL of Pan T Cell Biotin-Antibody Cocktail per 10^7 total cells. • 4) Mix well and incubate for 10 minutes in the refrigerator (ice). • 5) Add 30 μL of buffer per 10^7 total cells. • 6) Add 20 μL of Pan T Cell MicroBead Cocktail per 10^7 total cells. • 7) Mix well and incubate for 15 minutes in the refrigerator (ice). • 8) Proceed to subsequent magnetic cell separation. • Note: a. Work fast, keep cells cold, and use pre-cooled solutions (2-8° C.). b. Volumes for magnetic labeling given are for up to 10′ total cells. When working with fewer cells, use the same volumes as indicated. c. When working with higher cell numbers, scale up all reagent volumes and total volumes accordingly. d. For optimal performance it is important to obtain a single-cell suspension before magnetic labeling. Subsequent Manual Cell Separation: • 1) Place LS Column in the magnetic field of a suitable MACS Separator. For details refer to the respective MACS Column data sheet. • 2) Prepare column by rinsing with 3 mL of buffer. • 3) Apply cell suspension onto the column. Collect flow-through, which represents the enriched T cells. • 4) Wash column with 5 mL of buffer. […]

Row | SMILES | EC (2-fold response) (Homo sapiens, T-cell) [µM] | maximal fold induction (Homo sapiens, T-cell) | EC50 (Homo sapiens, T-cell) [nM] | EC50 [nM] | IL-2 Max Fold Response | EC2x (nM)
1 | COc1cc2c(cc1Nc1ncc(Cl)c(N3CC(C(=O)O)c4ccccc43)n1)CN(C)CC2 (single isomer, unassigned) [Example 96] | 0.1 to 0.5 | > 2 | 100 to 500 |  |  | 
2 | COc1cc2c(cc1Nc1ncc(Cl)c(N3C[C@](C)(C(=O)O)c4ccccc43)n1)CN(C)CC2 (single isomer, unassigned) [Example 118] |  | < 2 | > 1000 |  |  | 
3 | COc1cc2c(cc1Nc1ncc(Cl)c(N3C[C@@](C)(C(=O)O)c4ccccc43)n1)CN(C)CC2 (single isomer, unassigned) [Example 119] | ≤ 0.1 | > 2 | ≤ 100 |  |  | 
4 | COc1cc2c(cc1Nc1ncc(Cl)c(N3CC(C)(CC(=O)O)c4ccccc43)n1)CN(C)CC2 (single isomer, unassigned) [Example 147] |  | < 2 |  | 500 to 1000 |  | 
5 | COc1cc2c(cc1Nc1ncc(Cl)c(N3CC(C)(CC(=O)O)c4ccccc43)n1)CN(C)CC2 (single isomer, unassigned) [Example 148] | ≤ 0.1 |  |  | ≤ 100 | >2 | 
6 | COc1cc2c(cc1Nc1ncc(Cl)c(N3CC(C)(CC(=O)O)c4ccc(F)cc43)n1)CN(C)CC2 (single isomer, unassigned) [Example 152] | ≤ 0.1 | > 2 | ≤ 100 |  |  | 
7 | COc1cc2c(cc1Nc1ncc(Cl)c(N3CC(C)(CC(=O)O)c4ccc(F)cc43)n1)CN(C)CC2 (single isomer, unassigned) [Example 153] |  |  |  | 100 to 500 | >2 | +++ (“+++”, for higher values than “++++” but less than or equal to 500 nM)
8 | COc1cc2c(cc1Nc1ncc(Cl)c(-n3ccc4ccccc43)n1)CN(C)CC2 [Example 2, N-(5-chloro-4-(1H-indol-1-yl)pyrimidin-2-yl)-6-methoxy-2-methyl-1,2,3,4-tetrahydroisoquinolin-7-amine] |  | < 2 |  |  |  | 
9 | COc1cc2c(cc1Nc1ncc(Cl)c(N3CCc4ccccc43)n1)CN(C)CC2 [Example 4, N-(5-Chloro-4-(indolin-1-yl)pyrimidin-2-yl)-6-methoxy-2-methyl-1,2,3,4-tetrahydroisoquinolin-7-amine] | 0.1 to 0.5 | > 2 | 100 to 500 |  |  | 
10 | COc1cc2c(cc1Nc1ncc(Cl)c(-n3cc(C(=O)N(C)C)c4ccccc43)n1)CN(C)CC2 [Example 8] |  | < 2 |  |  |  | 
11 | COc1cc2c(cc1Nc1ncc(Cl)c(-n3cnc4ccccc43)n1)CN(C)CC2 [Example 9, N-(4-(1H-benzo[d]imidazol-1-yl)-5-chloropyrimidin-2-yl)-6-methoxy-2-methyl-1,2,3,4-tetrahydroisoquinolin-7-amine] |  | > 2 | 100 to 500 |  |  | ++ (“++”, for higher values than “+++” but less than or equal to 1 μM)
12 | COc1cc2c(cc1Nc1ncc(C(F)(F)F)c(-n3ccc4ccccc43)n1)CN(C)CC2 [Example 10, N-(4-(1H-indol-1-yl)-5-(trifluoromethyl)pyrimidin-2-yl)-6-methoxy-2-methyl-1,2,3,4-tetrahydroisoquinolin-7-amine] |  | < 2 |  |  |  | 
13 | COc1cc2c(cc1Nc1ncc(Cl)c(N3CCc4cc(Cl)ccc43)n1)CN(C)CC2 [Example 13, N-(5-chloro-4-(5-chloroindolin-1-yl)pyrimidin-2-yl)-6-methoxy-2-methyl-1,2,3,4-tetrahydroisoquinolin-7-amine] |  | < 2 | > 1000 |  |  | 
14 | CN1CCc2ccc(Nc3ncc(Cl)c(N4CCc5ccccc54)n3)cc2C1 [Example 14, N-(5-Chloro-4-(indolin-1-yl)pyrimidin-2-yl)-2-methyl-1,2,3,4-tetrahydroisoquinolin-7-amine] |  | < 2 |  |  |  | 
15 | CN1CCc2cc(Cl)c(Nc3ncc(Cl)c(N4CCc5ccccc54)n3)cc2C1 [Example 15, 6-Chloro-N-(5-chloro-4-(indolin-1-yl)pyrimidin-2-yl)-2-methyl-1,2,3,4-tetrahydroisoquinolin-7-amine] |  | > 2 | > 1000 |  |  | + (“+”, for greater than 1 μM)
16 | COc1cc2c(cc1Nc1ncc(Cl)c(N3CCc4ncccc43)n1)CN(C)CC2 [Example 16, N-(5-chloro-4-(2,3-dihydro-1H-pyrrolo[3,2-b]pyridin-1-yl)pyrimidin-2-yl)-6-methoxy-2-methyl-1,2,3,4-tetrahydroisoquinolin-7-amine] |  | < 2 | 100 to 500 |  |  | 
17 | COc1cc2c(cc1Nc1ncc(Cl)c(N3CCc4ccc(Cl)cc43)n1)CN(C)CC2 [Example 18, N-(5-chloro-4-(6-chloroindolin-1-yl)pyrimidin-2-yl)-6-methoxy-2-methyl-1,2,3,4-tetrahydroisoquinolin-7-amine] |  | < 2 | 100 to 500 |  |  | 
18 | COc1cc2c(cc1Nc1ncc(Cl)c(N3CC(S(C)(=O)=O)c4ccccc43)n1)CN(C)CC2 (stereo not drawn) [Example 81, N-(5-chloro-4-(3-(methylsulfonyl)indolin-1-yl)pyrimidin-2-yl)-6-methoxy-2-methyl-1,2,3,4-tetrahydroisoquinolin-7-amine] | 0.1 to 0.5 | > 2 | 500 to 1000 |  |  | 
19 | COc1cc2c(cc1Nc1ncc(Cl)c(-n3cc(S(N)(=O)=O)c4ccccc43)n1)CN(C)CC2 [Example 83, 1-(5-Chloro-2-((6-methoxy-2-methyl-1,2,3,4-tetrahydroisoquinolin-7-yl)amino)pyrimidin-4-yl)-1H-indole-3-sulfonamide] |  | < 2 | 100 to 500 |  |  | 
20 | COc1cc2c(cc1Nc1ncc(Cl)c(N3CC4(CC4)c4ccccc43)n1)CN(C)CC2 [Example 84, N-(5-chloro-4-(spiro[cyclopropane-1,3′-indolin]-1′-yl)pyrimidin-2-yl)-6-methoxy-2-methyl-1,2,3,4-tetrahydroisoquinolin-7-amine] |  | < 2 | 500 to 1000 |  |  | 
21 | COc1cc2c(cc1Nc1ncc(Cl)c(N3CCc4cc(P(C)(C)=O)ccc43)n1)CN(C)CC2 [Example 86] |  | > 2 | 100 to 500 |  |  | + (“+”, for greater than 1 μM)
22 | COc1cc2c(cc1Nc1ncc(Cl)c(N3CC(CO)c4ccccc43)n1)CN(C)CC2 (stereo not drawn) [Example 87] |  | < 2 | 100 to 500 |  |  | 
23 | COc1cc2c(cc1Nc1ncc(Cl)c(N3CC(P(C)(C)=O)c4ccccc43)n1)CN(C)CC2 (stereo not drawn) [Example 88] |  | < 2 | 500 to 1000 |  |  | 
24 | COc1cc2c(cc1Nc1ncc(Cl)c(N3CCc4cc(C(F)F)ccc43)n1)CN(C)CC2 [Example 90, N-(5-chloro-4-(5-(difluoromethyl)indolin-1-yl)pyrimidin-2-yl)-6-methoxy-2-methyl-1,2,3,4-tetrahydroisoquinolin-7-amine] |  | < 2 | > 1000 |  |  | 
